From US10823735B2, “Monoclonal antibody for predicting tamoxifen response in breast cancer patients” (The University of Hong Kong, priority 2015, dated 2020) come the findings set out here.

One test relates to ZR75-BQ323636.1. As to the kind of experiment: Orthotopic nude mouse model, ZR75-BQ323636.1. Format: in vivo, nude mice. To be noted: ZR75-BQ323636.1, mammary fat pad, daily subcutaneous injection in peanut oil. On the procedure:
(§1) Orthotopic mouse model—The cell lines mixed with Matrigel (BD Biosciences) at the ratio of 1:1 were inoculated into the abdominal mammary fat pad of the 5 to 6 week old female nude mice. When the tumor were palpable, the mice were randomized into treatment and control groups where treatment groups received daily subcutaneous injection of tamoxifen (Sigma) dissolved in peanut oil (Sigma) and the control groups received subcutaneous injection of the solvent only. Tumor sizes were measured by caliper and tumor volume was calculated as (length*width*width)/2. Tumor growth rate was expressed as the % of tumor volume change calculated as the tumor volume measured at the indicated time point normalized against the tumor volume at day 0*100%. This protocol has been reviewed and approved by Committee on the Use of Live Animals in Teaching and Research (CULATR), the University of Hong Kong (CULATR No.: 3259-14)
(§2) We further validated the effect of BQ323636.1 overexpression in conferring tamoxifen resistance using a nude mouse model. […] Tumor sizes were measured by caliper and tumor volume was calculated as (length*width*width)/2. Tumor growth rate was expressed as the % of tumor volume change calculated as the tumor volume measured at the indicated time point normalized against the tumor volume at day 0*100%. […]

The next test relates to MCF7-vector. As to the kind of experiment: Orthotopic nude mouse model, MCF7-vector. The test is classed as in vivo, nude mice. To be noted: mammary fat pad, daily subcutaneous injection in peanut oil. On the procedure: as §1, §2
A further test has as its system MCF7-BQ323636.1. As to the kind of experiment: Orthotopic nude mouse model, MCF7-BQ323636.1. The settings on record: MCF7-BQ323636.1, mammary fat pad, daily subcutaneous injection in peanut oil. Format: in vivo, nude mice. On the procedure: as §1, §2
Test [1] deals with ZR75-BQ323636.1 and MCF7-BQ323636.1. As to the kind of experiment: MTT assay, tamoxifen response of BQ323636.1 overexpressing cell lines. The test is classed as cell-based, Human. The settings on record: BQ323636.1 overexpression versus empty vector cell lines. On the procedure:
Cell lines—Human breast cancer cell lines MCF7 and ZR-75-1 were purchased from American Type Culture Collection and were re-authenticated by short tandem repeat profiling (Zhang, Gong et al. 2013). MCF7 was cultured in Dulbecco's Modified Eagle's Medium supplemented with 10% FBS and 1% penicillin/streptomycin and ZR-75-1 was cultured in Improved Minimum Essential Medium (IMEM) supplemented with 5% FBS and 1% penicillin/streptomycin. LCC2 and AK-47 are the two tamoxifen resistant cell lines derived from MCF7 and ZR-75-1, respectively and were kindly provided by Dr. Robert Clarke (Georgetown University Medical School, Washington, D.C.) (Wong, Dai et al. 2006) and have been used in our previous study (Zhang, Gong et al. 2013). LCC2 and AK-47 were both cultured in IMEM supplemented with 5% charcoal-stripped FBS and 1% penicillin/streptomycin. All the cell lines used in this study have been passaged and kept fewer than 6 months after the re-authentication or thawing. […]
MTT assay—Cells were seeded at a density of 6×10^3 cells/well. […] Extinction of the samples was measured by the Infinite 200 microtiter plate reader (Tecan) at 570 nm with a reference wavelength at 750 nm. Background MTT readings were subtracted from the samples. […]

A further test deals with ZR75-vector. As to the kind of experiment: Orthotopic nude mouse model, ZR75-vector. The test is classed as in vivo, nude mice. The settings on record: mammary fat pad, daily subcutaneous injection in peanut oil. On the procedure:
as §1, §2

In the case of `CC/C(=C(\c1ccccc1)c1ccc(OCCN(C)C)cc1)c1ccccc1` [tamoxifen], the “tumor growth versus solvent control group” value with ZR75-BQ323636.1 was “no change of tumor growth”; in the test with MCF7-vector it was “significantly reduced tumor growth”; in the test with MCF7-BQ323636.1, “no change of tumor growth”; in the test on ZR75-vector, “significantly reduced tumor growth”. In addition, the “tamoxifen resistance in MTT assay” value in test [1] is on record as “induced the tamoxifen resistance”.
